Measured values reported in patent US20140005163A1 (NOVARTIS AG, priority 2010, published 2014).

Legend:
PI3K beta = molecular target: T1, PI3K beta (Homo sapiens, UniProt P42338); assay: PI3K beta kinase assay (Kinase-Glo luminescence); type: biochemical
T1 construct: for the full-length p110-b subunit are generated and fused by overlapping PCR; p85(iSH2) fusion partner (see partner chain) (N); His tag (C); made in house; host or cells: baculovirus; Tn5 (Trichoplusia ni) or TiniPro insect cells
How it was run: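 Full-length p110β with a Gly-linked p85 iSH2 and a C-terminal His tag (BV949, 25 nM) was incubated with 10 μg/mL phosphatidylinositol and 1 μM ATP in 10 mM Tris pH 7.5, 3 mM MgCl2, 50 mM NaCl, 0.05% CHAPS, 1 mM DTT for 60 min at room temperature. Residual ATP was read by Kinase-Glo luminescence.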

PI3K gamma = molecular target: T2, PI3K gamma (Homo sapiens, UniProt P48736); assay: PI3K gamma kinase assay (Kinase-Glo luminescence); type: biochemical
T2 construct: His tag (C); made in house; host or cells: baculovirus (pVL1393); Tn5 or TiniPro insect cells; construct from Roger Williams lab, MRC LMB
How it was run: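 Luminescent ATP-depletion (Kinase-Glo) assay with 150 nM PI3Kγ, 1 μM ATP and 10 μg/mL phosphatidylinositol in 10 mM Tris-HCl pH 7.5, 3 mM MgCl2, 50 mM NaCl, 0.05% CHAPS, 1 mM DTT; 120 min at room temperature. Eight-point dilutions; IC50 by four-parameter logistic fit.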

T2 sequence (P48736 144-1102 limits assumed): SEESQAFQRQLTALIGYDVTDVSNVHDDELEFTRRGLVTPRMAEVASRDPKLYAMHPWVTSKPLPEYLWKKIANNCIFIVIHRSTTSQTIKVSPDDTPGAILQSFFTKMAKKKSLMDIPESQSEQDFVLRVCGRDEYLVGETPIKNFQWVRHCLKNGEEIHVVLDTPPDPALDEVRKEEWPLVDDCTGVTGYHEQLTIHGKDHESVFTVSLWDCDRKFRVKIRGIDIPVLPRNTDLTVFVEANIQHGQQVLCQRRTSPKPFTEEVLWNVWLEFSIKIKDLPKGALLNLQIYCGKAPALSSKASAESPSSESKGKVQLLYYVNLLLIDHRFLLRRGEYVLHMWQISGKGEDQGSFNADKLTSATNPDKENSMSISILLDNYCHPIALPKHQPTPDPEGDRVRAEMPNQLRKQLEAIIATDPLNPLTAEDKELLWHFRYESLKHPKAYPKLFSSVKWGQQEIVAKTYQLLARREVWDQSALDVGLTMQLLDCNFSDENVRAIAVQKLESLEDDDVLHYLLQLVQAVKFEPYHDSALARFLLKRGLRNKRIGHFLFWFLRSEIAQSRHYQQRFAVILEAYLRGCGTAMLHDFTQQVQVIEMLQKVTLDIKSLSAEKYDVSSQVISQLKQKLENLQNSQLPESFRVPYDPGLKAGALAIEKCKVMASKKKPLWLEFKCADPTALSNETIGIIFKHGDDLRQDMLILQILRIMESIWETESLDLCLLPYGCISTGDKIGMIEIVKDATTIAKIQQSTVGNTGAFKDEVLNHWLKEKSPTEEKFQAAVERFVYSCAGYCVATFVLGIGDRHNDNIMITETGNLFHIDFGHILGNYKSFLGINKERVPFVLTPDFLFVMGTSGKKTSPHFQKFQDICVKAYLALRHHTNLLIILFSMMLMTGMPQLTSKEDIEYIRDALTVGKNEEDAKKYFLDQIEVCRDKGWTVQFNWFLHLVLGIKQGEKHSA
T1 sequence (P42338 with tags, fused parts or gaps limits assumed): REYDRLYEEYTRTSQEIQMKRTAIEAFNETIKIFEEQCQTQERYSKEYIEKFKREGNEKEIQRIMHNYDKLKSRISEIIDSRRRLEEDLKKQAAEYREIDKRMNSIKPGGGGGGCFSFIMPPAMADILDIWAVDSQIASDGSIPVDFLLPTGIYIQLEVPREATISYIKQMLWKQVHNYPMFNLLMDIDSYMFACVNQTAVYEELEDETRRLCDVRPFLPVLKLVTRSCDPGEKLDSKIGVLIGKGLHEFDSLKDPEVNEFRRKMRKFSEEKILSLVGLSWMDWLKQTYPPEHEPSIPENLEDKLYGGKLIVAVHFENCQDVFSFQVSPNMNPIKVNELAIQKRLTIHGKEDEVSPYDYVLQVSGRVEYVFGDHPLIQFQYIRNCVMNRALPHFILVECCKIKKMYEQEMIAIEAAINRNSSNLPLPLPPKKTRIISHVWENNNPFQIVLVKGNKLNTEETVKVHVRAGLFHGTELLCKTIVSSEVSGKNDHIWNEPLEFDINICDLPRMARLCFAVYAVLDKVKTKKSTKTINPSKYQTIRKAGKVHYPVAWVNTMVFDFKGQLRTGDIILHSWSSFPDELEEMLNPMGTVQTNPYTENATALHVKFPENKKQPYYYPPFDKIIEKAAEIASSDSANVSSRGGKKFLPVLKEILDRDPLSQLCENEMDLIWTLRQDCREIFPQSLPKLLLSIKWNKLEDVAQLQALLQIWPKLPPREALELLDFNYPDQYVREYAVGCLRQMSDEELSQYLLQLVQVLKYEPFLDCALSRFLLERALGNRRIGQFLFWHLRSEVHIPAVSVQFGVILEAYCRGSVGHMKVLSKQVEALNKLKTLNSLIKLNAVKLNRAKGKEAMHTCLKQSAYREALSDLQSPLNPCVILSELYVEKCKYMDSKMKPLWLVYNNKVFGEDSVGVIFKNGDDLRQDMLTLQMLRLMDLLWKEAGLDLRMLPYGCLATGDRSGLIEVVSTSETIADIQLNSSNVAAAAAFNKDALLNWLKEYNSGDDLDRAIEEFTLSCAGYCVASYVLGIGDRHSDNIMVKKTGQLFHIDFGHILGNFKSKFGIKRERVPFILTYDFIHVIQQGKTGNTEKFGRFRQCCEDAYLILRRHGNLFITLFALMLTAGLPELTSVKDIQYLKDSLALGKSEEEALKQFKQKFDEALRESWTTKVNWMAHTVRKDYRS

Row | SMILES | IC50 (PI3K beta) | IC50 (PI3K gamma)
1 | Cc1nn(C)cc1-n1c(=O)n(C)c2cnc3ccc(-c4cccc(C(N)=O)c4)cc3c21 [Example 46, 3-[1-(1,3-Dimethyl-1H-pyrazol-4-yl)-3-methyl-2-oxo-2,3-dihydro-1H-imidazo[4,5-c]quinolin-8-yl]-benzamide] | 563 nM | 388 nM
2 | Cc1nn(C)cc1-n1c(=O)n(C)c2cnc3ccc(-c4ccccc4)cc3c21 [Example 37.1, 1-(1,3-Dimethyl-1H-pyrazol-4-yl)-3-methyl-8-phenyl-1,3-dihydro-imidazo[4,5-c]quinolin-2-one] | 970 nM | 144 nM
3 | CCOc1ccc(-c2ccc3ncc4c(c3c2)n(-c2cn(CC)nc2C)c(=O)n4C)cc1OCC [Example 27.1, 8-(3,4-Diethoxy-phenyl)-1-(1-ethyl-3-methyl-1H-pyrazol-4-yl)-3-methyl-1,3-dihydro-imidazo[4,5-c]quinolin-2-one] | 122 nM | 215 nM
4 | Cc1nn(C)cc1-n1c(=O)n(C)c2cnc3ccc(-c4ccc(C(N)=O)cc4)cc3c21 [Example 41, 4-[1-(1,3-Dimethyl-1H-pyrazol-4-yl)-3-methyl-2-oxo-2,3-dihydro-1H-imidazo[4,5-c]quinolin-8-yl]-benzamide] | 112 nM | 165 nM
5 | Cc1nn(C)cc1-n1c(=O)n(C)c2cnc3ccc(-c4cncc(N(C)S(C)(=O)=O)c4)cc3c21 [Example 121, N-{5-[1-(1,3-Dimethyl-1H-pyrazol-4-yl)-3-methyl-2-oxo-2,3-dihydro-1H-imidazo[4,5-c]quinolin-8-yl]-pyridin-3-yl}-N-methyl-methanesulfonamide] | 93 nM | 184 nM
6 | Cc1nn(C)cc1-n1c(=O)n(C)c2cnc3ccc(-c4cccc(S(C)(=O)=O)c4)cc3c21 [Example 40, 1-(1,3-Dimethyl-1H-pyrazol-4-yl)-8-(3-methanesulfonyl-phenyl)-3-methyl-1,3-dihydro-imidazo[4,5-c]quinolin-2-one] | 34 nM | 83 nM
7 | COc1ccc(-c2ccc3ncc4c(c3c2)n(-c2ccnn2C)c(=O)n4C)cc1OC [Example 1.3, 8-(3,4-Dimethoxy-phenyl)-3-methyl-1-(2-methyl-2H-pyrazol-3-yl)-1,3-dihydro-imidazo[4,5-c]quinolin-2-one] | 129 nM | 540 nM
8 | Cc1nn(C)cc1-n1c(=O)n(C)c2cnc3ccc(-c4cccc(O)c4)cc3c21 [Example 32.1, 1-(1,3-Dimethyl-1H-pyrazol-4-yl)-8-(3-hydroxy-phenyl)-3-methyl-1,3-dihydro-imidazo[4,5-c]quinolin-2-one] | 43 nM | 140 nM
9 | Cc1nn(C)cc1-n1c(=O)n(C)c2cnc3ccc(-c4cccc5c4OC(F)(F)O5)cc3c21 [Example 35, 8-(2,2-Difluoro-benzo[1,3]dioxol-4-yl)-1-(1,3-dimethyl-1H-pyrazol-4-yl)-3-methyl-1,3-dihydro-imidazo[4,5-c]quinolin-2-one] | 37 nM | 113 nM
10 | Cc1nn(C)cc1-n1c(=O)n(C)c2cnc3ccc(-c4cccc(S(=O)(=O)N(C)C)c4)cc3c21 [Example 53.1, 3-[1-(1,3-Dimethyl-1H-pyrazol-4-yl)-3-methyl-2-oxo-2,3-dihydro-1H-imidazo[4,5-c]quinolin-8-yl]-N,N-dimethyl-benzenesulfonamide] | 51 nM | 190 nM
11 | CCOc1ccc(-c2ccc3ncc4[nH]c(=O)n(-c5cn(C)nc5C)c4c3c2)cn1 [Example 110, 1-(1,3-Dimethyl-1H-pyrazol-4-yl)-8-(6-ethoxy-pyridin-3-yl)-1,3-dihydro-imidazo[4,5-c]quinolin-2-one] | 137 nM | 337 nM
12 | Cc1nn(C)cc1-n1c(=O)n(C)c2cnc3ccc(-c4cncc(C(C)(C)C#N)c4)cc3c21 [Example 220.1, 2-{5-[1-(1,3-Dimethyl-1H-pyrazol-4-yl)-3-methyl-2-oxo-2,3-dihydro-1H-imidazo[4,5-c]quinolin-8-yl]-pyridin-3-yl}-2-methyl-propionitrile] | 23 nM | 

Now from value to molecule:

Row | IC50 (PI3K beta) | IC50 (PI3K gamma) | SMILES
13 | 477 nM | 182 nM | CCOc1ccc(-c2ccc3ncc4c(c3c2)n(-c2cnn(C)c2C)c(=O)n4C)cn1 [Example 3.6, 1-(1,5-Dimethyl-1H-pyrazol-4-yl)-8-(6-ethoxy-pyridin-3-yl)-3-methyl-1,3-dihydro-imidazo[4,5-c]quinolin-2-one]
14 | 31 nM | 194 nM | CCOc1cc(-c2ccc3ncc4c(c3c2)n(-c2cn(C)nc2C)c(=O)n4C)ccc1OC [Example 28.3, 1-(1,3-Dimethyl-1H-pyrazo1-4-yl)-8-(3-ethoxy-4-methoxy-phenyl)-3-methyl-1,3-dihydro-imidazo[4,5-c]quinolin-2-one]
15 | 132 nM | 174 nM | CCOc1cc(-c2ccc3ncc4c(c3c2)n(-c2c(C)nn(C)c2C)c(=O)n4C)ccc1OC [Example 28.2, 8-(3-Ethoxy-4-methoxy-phenyl)-3-methyl-1-(1,3,5-trimethyl-1H-pyrazol-4-yl)-1,3-dihydro-imidazo[4,5-c]quinolin-2-one]
16 | 6 nM | 121 nM | CCOc1cncc(-c2ccc3ncc4c(c3c2)n(-c2cn(C)nc2Cl)c(=O)n4C)c1 [Example 56.4, 1-(3-Chloro-1-methyl-1H-pyrazol-4-yl)-8-(5-ethoxy-pyridin-3-yl)-3-methyl-1,3-dihydro-imidazo[4,5-c]quinolin-2-one]
17 | 28 nM | 157 nM | COCc1cncc(-c2ccc3ncc4c(c3c2)n(-c2cn(C)nc2C)c(=O)n4C)c1 [Example 54.1, 1-(1,3-Dimethyl-1H-pyrazol-4-yl)-8-(5-methoxymethyl-pyridin-3-yl)-3-methyl-1,3-dihydro-imidazo[4,5-c]quinolin-2-one]
18 | 12 nM |  | CNc1cc(-c2ccc3ncc4c(c3c2)n(-c2cn(C)nc2C)c(=O)n4C)cnc1F [Example 150.2, 1-(1,3-Dimethyl-1H-pyrazol-4-yl)-8-(6-fluoro-5-methylamino-pyridin-3-yl)-3-methyl-1,3-dihydro-imidazo[4,5-c]quinolin-2-one]
19 | 90 nM |  | CCn1cc(-n2c(=O)n(C)c3cnc4ccc(-c5cnc(NC)nc5OC)cc4c32)c(C)n1 [Example 236, 1-(1-Ethyl-3-methyl-1H-pyrazol-4-yl)-8-(4-methoxy-2-methylamino-pyrimidin-5-yl)-3-methyl-1,3-dihydro-imidazo[4,5-c]quinolin-2-one]
20 | 10 nM |  | Cc1nn(C)cc1-n1c(=O)n(C)c2cnc3ccc(-c4cncc(C(C)(C)O)c4)cc3c21 [Example 215.2, 1-(1,3-Dimethyl-1H-pyrazol-4-yl)-8-[5-(1-hydroxy-1-methyl-ethyl)-pyridin-3-yl]-3-methyl-1,3-dihydro-imidazo[4,5-c]quinolin-2-one]
21 | 95 nM |  | Cc1noc(C)c1-n1c(=O)n(C)c2cnc3ccc(-c4cnc(N)c(Cl)c4)cc3c21 [Example 148.4, 8-(6-Amino-5-chloro-pyridin-3-yl)-1-(3,5-dimethyl-isoxazol-4-yl)-3-methyl-1,3-dihydro-imidazo[4,5-c]quinolin-2-one]
22 | 161 nM |  | CCn1cc(-n2c(=O)n(C)c3cnc4ccc(-c5cnc(COC)c(OC)c5)cc4c32)c(C)n1 [Example 195.3, 1-(1-Ethyl-3-methyl-1H-pyrazol-4-yl)-8-(5-methoxy-6-methoxymethyl-pyridin-3-yl)-3-methyl-1,3-dihydro-imidazo[4,5-c]quinolin-2-one]
23 | 335 nM |  | CCNc1cc(-c2ccc3ncc4c(c3c2)n(-c2c(C)nn(CC(=O)N(C)C)c2C)c(=O)n4C)cnc1C [Example 87.5, 2-{4-[8-(5-Ethylamino-6-methyl-pyridin-3-yl)-3-methyl-2-oxo-2,3-dihydro-imidazo[4,5-c]quinolin-1-yl]-3,5-dimethyl-pyrazol-1-yl}-N,N-dimethyl-acetamide]
24 | 84 nM |  | CCNc1ncc(-c2ccc3ncc4c(c3c2)n(-c2cn(C)nc2C)c(=O)n4C)cc1COCC [Example 167, 1-(1,3-Dimethyl-1H-pyrazol-4-yl)-8-(5-ethoxymethyl-6-ethylamino-pyridin-3-yl)-3-methyl-1,3-dihydro-imidazo[4,5-c]quinolin-2-one]
25 | 25 nM |  | COc1ncc(-c2ccc3ncc4c(c3c2)n(-c2cn(C)nc2C)c(=O)n4C)c(OC)n1 [Example 234.2, 8-(2,4-Dimethoxy-pyrimidin-5-yl)-1-(1,3-dimethyl-1H-pyrazol-4-yl)-3-methyl-1,3-dihydro-imidazo[4,5-c]quinolin-2-one]
26 | 161 nM |  | COc1ncc(-c2ccc3ncc4c(c3c2)n(-c2cn(C)nc2C)c(=O)n4C)cc1C#N [Example 132, 5-[1-(1,3-Dimethyl-1H-pyrazol-4-yl)-3-methyl-2-oxo-2,3-dihydro-1H-imidazo[4,5-c]quinolin-8-yl]-2-methoxy-nicotinonitrile]
27 | 50 nM |  | COc1cc(-c2ccc3ncc4c(c3c2)n(-c2cn(C)nc2C)c(=O)n4C)cnc1CO [Example 193, 1-(1,3-Dimethyl-1H-pyrazol-4-yl)-8-(6-hydroxymethyl-5-methoxy-pyridin-3-yl)-3-methyl-1,3-dihydro-imidazo[4,5-c]quinolin-2-one]
28 | 115 nM |  | CCNc1cc(-c2ccc3ncc4c(c3c2)n(-c2c(C)nn(CCOC)c2C)c(=O)n4C)cnc1OC [Example 90.2, 8-(5-Ethylamino-6-methoxy-pyridin-3-yl)-1-[1-(2-methoxy-ethyl)-3,5-dimethyl-1H-pyrazol-4-yl]-3-methyl-1,3-dihydro-imidazo[4,5-c]quinolin-2-one]
